Structures can show the parent of a compound that is named as a salt.
Assay: collision cross section in nitrogen (drift tube, single-field); higher = larger gas-phase ion size
[1] = ion type: [M+H], ion source: APCI, ion mode: Positive
[2] = ion type: [M+H], ion source: ESI, ion mode: Positive
[3] = ion type: [M-H], ion source: ESI, ion mode: Negative
[4] = ion type: [M+Na], ion source: ESI, ion mode: Positive
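Further: chemical standards at 10 µM analysed by drift tube IMS-QTOF MS in about 3.95 torr nitrogen, mean of duplicate injections differing ≤1%, mass error below 10 ppm.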

Row | Compound | collision cross section in nitrogen [1] | collision cross section in nitrogen [2] | collision cross section in nitrogen [3] | also measured
1 | Nc1ccc(Oc2ccc(N)c(N)c2)cc1 [3,4,4'-Triaminodiphenyl ether] | 159.9 Å² |  |  | 
2 | N#Cc1nc(Cl)c(Cl)c(Cl)c1Cl [3,4,5,6-Tetrachloropyridine-2-carbonitrile] |  | 142.6 Å² |  | 
3 | O=C1CCc2ccccc2O1 [3,4-Dihydrocoumarin] |  |  | 127.6 Å² | 
4 | Cc1ccc(O)cc1C [3,4-Dimethylphenol] |  |  | 128.7 Å² | 
5 | N[C@@H](Cc1cc(I)c(Oc2ccc(O)c(I)c2)c(I)c1)C(=O)O [3,5,3'-Triiodothyronine] |  | 205.3 Å² | 198.1 Å² | 
6 | N[C@@H](Cc1cc(I)c(Oc2ccc(O)c(I)c2)c(I)c1)C(=O)O [3,5,3′-Triiodo-L-thyronine monosodium salt] |  | 204.8 Å² | 198.1 Å² | 
7 | Nc1cc(N)cc(C(=O)O)c1 [3,5-Diaminobenzoic acid] |  |  | 136.6 Å² | 
8 | O=C(O)c1cc(Br)c(O)c(Br)c1 [3,5-Dibromo-4-hydroxybenzoic acid] |  |  | 136.4 Å² | 
9 | O=C1N=CC(Cl)=CC1Cl (centres undefined) [3,5-Dichloro-2-pyridone] |  |  | 123.4 Å² | 
10 | O=C(O)c1cc(Cl)cc(Cl)c1O [3,5-Dichlorosalicylic acid] |  |  | 130.7 Å² | 
11 | CCCC1C(CC)=CC(CC)=CN1c1ccccc1 (centres undefined) [3,5-Diethyl-1-phenyl-2-propyl-1,2-dihydropyridine] | 163.4 Å² |  |  | 
12 | Cc1cc(C)cc(O)c1 [3,5-Dimethylphenol] |  |  | 127.3 Å² | 
13 | COCCOCCOCCOCCOCCO [3,6,9,12,15-Pentaoxahexadecanol] | 151.8 Å² |  |  | collision cross section in nitrogen [4]: 153.3 Å²
14 | CCCCOCCOCCOCCOCCO [3,6,9,12-Tetraoxahexadecan-1-ol] | 157.1 Å² |  |  | collision cross section in nitrogen [4]: 160.4 Å²
15 | C=COCCOCCOCCOC=C [3,6,9,12-Tetraoxatetradeca-1,13-diene] |  |  |  | collision cross section in nitrogen [4]: 143.4 Å²
16 | CC(=O)CCCCn1c(=O)c2c(ncn2C)n(C)c1=O [3,7-Dihydro-3,7-dimethyl-1-(5-oxohexyl)-1H-Purine-2,6-dione] |  | 160.9 Å² |  | collision cross section in nitrogen [4]: 172 Å²
17 | CCC(C)(CCCC(C)C)OC(C)=O (centres undefined) [3,7-Dimethyloctan-3-yl acetate] |  |  | 154.8 Å² | 
18 | OCCCc1cccnc1 [3-(3-Pyridyl)-1-propanol] | 128 Å² | 128.4 Å² |  | 
19 | CCN(Cc1cccc(S(=O)(=O)O)c1)c1ccccc1 [3-((Ethylphenylamino)methyl)benzenesulfonic acid] |  | 161.1 Å² | 175.5 Å² | collision cross section in nitrogen [4]: 174.9 Å²
20 | NCc1cccnc1 [3-(Aminomethyl)pyridine] | 118.5 Å² | 119.6 Å² |  | 
21 | ClCc1cccnc1 [3-(Chloromethyl)pyridine hydrochloride] | 123.8 Å² |  |  | 
22 | CCCCCCCCCCC=CC1CC(=O)OC1=O (centres undefined) [3-(Dodecenyl)dihydro-2,5-furandione] |  |  | 170.1 Å² | 

Row | Compound | collision cross section in nitrogen [1] | collision cross section in nitrogen [2] | collision cross section in nitrogen [3] | also measured
23 | CCN(CCC#N)c1cccc(C)c1 [3-(Ethyl(3-methylphenyl)amino)propanenitrile] | 144.7 Å² | 144.3 Å² |  | collision cross section in nitrogen (ion type: [M+], ion source: APCI, ion mode: Positive): 143.6 Å²
24 | CCCCCCCCOCCCN [3-(Octyloxy)propan-1-amine] | 156.9 Å² | 156.2 Å² |  | 
25 | O=[N+]([O-])c1ccc(O)cc1C(F)(F)F [3-(Trifluoromethyl)-4-nitrophenol] |  |  | 128.7 Å² | 
26 | O=C(O)c1cccc(C(F)(F)F)c1 [3-(Trifluoromethyl)benzoic acid] |  |  | 132.4 Å² | 
27 | Oc1cccc(C(F)(F)F)c1 [3-(Trifluoromethyl)phenol] |  |  | 121.3 Å² | 
28 | CC(=O)c1cccnc1 [3-Acetylpyridine] | 123.6 Å² |  |  | 
29 | Nc1cc(C(=O)O)ccc1Cl [3-Amino-4-chlorobenzoic acid] |  |  | 135.4 Å² | 
30 | Cc1c(Cl)c(=O)oc2cc(O)ccc12 [3-Chloro-7-hydroxy-4-methyl-2-benzopyrone] |  | 138.4 Å² |  | 
31 | Oc1ccc(-c2ccccc2)cc1Cl [3-Chloro[1,1′-biphenyl]-4-ol] |  |  | 143.8 Å² | 
32 | CCOc1cc(C=O)ccc1O [3-Ethoxy-4-hydroxybenzaldehyde] |  |  | 133.6 Å² | 
33 | CCc1cccc(O)c1 [3-Ethylphenol] |  |  | 127.5 Å² | 
34 | OCc1ncccc1O [3-Hydroxy-2-(hydroxymethyl)pyridine hydrochloride] | 121.7 Å² | 122.1 Å² | 119.9 Å² | 
35 | O=C(Nc1ccccc1)c1cc2ccccc2cc1O [3-Hydroxy-2-naphthanilide] | 160.9 Å² | 160.7 Å² | 160.7 Å² | 
36 | O=C(O)c1cc2ccccc2cc1O [3-Hydroxy-2-naphthoic acid] |  |  | 135.6 Å² | 
37 | COc1ccccc1NC(=O)c1cc2ccccc2cc1O [3-Hydroxy-2-naphthoic o-anisidide] | 167.3 Å² | 167.5 Å² | 168.9 Å² | collision cross section in nitrogen [4]: 181.8 Å²
38 | CCOc1ccc(NC(=O)CC(C)O)cc1 (centres undefined) [3-Hydroxy-4-butyrophenetidide] | 155.5 Å² | 155.6 Å² |  | collision cross section in nitrogen [4]: 169.5 Å²
39 | O=C(Nc1cccc([N+](=O)[O-])c1)c1cc2ccccc2cc1O [3-Hydroxy-N-(3-nitrophenyl)naphthalene-2-carboxamide] |  |  | 170.2 Å² | 
40 | Oc1ccc2c(c1)-c1ccccc1C2 [3-Hydroxyfluorene] |  |  | 142.4 Å² | 
41 | Oc1cccc(I)c1 [3-Iodophenol] |  |  | 122.5 Å² | 
42 | CC(C)c1cccc(O)c1 [3-Isopropylphenol] |  |  | 132.9 Å² | 
43 | COc1cc(C)cc(O)c1 [3-Methoxy-5-methylphenol] |  |  | 130.1 Å² | 

Reference: the supplement of paper PMC12317010
